The values below come from PubChem BioAssay (NCI).

Some test systems named below: KM12 colon; OVCAR-8 ovarian; T-47D breast; SF-295 CNS; K-562 leukemia; PC-3 prostate; SW-620 colon; M14 melanoma; HT29 colon; RXF 393 renal.
What all share (experiment): NCI-60 cell line screen, 48 h

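Growth conditions: 96-well plates. Treatment: test compound, 48 hours, 5 concentrations. Analysis: linear interpolation between bracketing concentrations; unreached endpoints set to highest concentration. GI50 marks 50% less growth. TGI denotes the concentration required for complete inhibition of growth.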

Take `Cc1ccc(NS(=O)(=O)c2ccc(-c3cnc(C4CC4)o3)cc2)cc1`: the GI50 with KM12 colon is 2.53 µM; with OVCAR-8 ovarian it was 5.24 µM; with T-47D breast it was 2.68 µM; in the assay on SF-295 CNS, 2.66 µM; in the assay on K-562 leukemia, 0.519 µM; in the assay with PC-3 prostate, 3.27 µM. For the same compound, the GI50 was 2.25 µM with SW-620 colon, 1.56 µM with M14 melanoma, 2.34 µM in the assay with HT29 colon and 2.36 µM in the assay with RXF 393 renal. Further, the TGI was found to be 15.9 µM in the assay with KM12 colon; 24.3 µM in the assay with OVCAR-8 ovarian; 11 µM with T-47D breast; 12.2 µM in the assay on SF-295 CNS; 16.3 µM with K-562 leukemia; 16.3 µM in the assay with PC-3 prostate. The TGI came out at 13.2 µM in the assay on SW-620 colon, 11.7 µM in the assay on M14 melanoma, 11 µM in the assay on HT29 colon and 10.7 µM in the assay on RXF 393 renal.

Turning to `OCC1SC(n2cnc3cncnc32)C(O)C1O` (stereo not given), the GI50 is > 100 µM in the assay on KM12 colon; 85.2 µM with OVCAR-8 ovarian; > 100 µM with T-47D breast; > 100 µM in the assay with SF-295 CNS; > 100 µM in the assay with K-562 leukemia; > 100 µM with PC-3 prostate. In addition, the GI50 in the assay on SW-620 colon, with M14 melanoma, in the assay with HT29 colon and in the assay with RXF 393 renal was > 100 µM throughout. For the same compound, the TGI in the assay with KM12 colon, in the assay with OVCAR-8 ovarian, in the assay on T-47D breast, with SF-295 CNS, in the assay with K-562 leukemia and in the assay with PC-3 prostate was > 100 µM in each case. Besides, the TGI with SW-620 colon, in the assay with M14 melanoma, with HT29 colon and in the assay with RXF 393 renal was > 100 µM in each case.
